SMILES strings stand for the structures. Like-named read-outs stand apart in the source and are kept apart here.

One test has as its system BxPC-3. Nature of the test: Viability assay (CELLTITER-GLO), 24 hours treatment. The format is cell-based, human. Here is the method:
(§1) In these experiments, viability assays after 24 hours treatment of human and murine pancreatic cancer cell lines and synovial sarcoma cell lines with SW V-49s or its parent compounds SV119 and Erastin, both singly and in combination, were performed. […] In comparison.
(§2) Cytotoxicity of the drugs was evaluated by CELLTITER-GLO®. Luminescent cell viability assay (Promega, Madison, Wis.). Pancreatic cell lines were plated at a density of 2×10^4/well in white 96 well, clear bottom plates for 24 hours prior to treatment. Drugs were dissolved in DMSO and serially diluted in culture medium to achieve the final concentration of DMSO less than 1%. Cells were then treated for 24 hours and 100 μl of the CELLTITER-GLO® reagent was added to each well. The contents of the plates were mixed using an orbital shaker and subsequently incubated for 10 minutes at room temperature. Luminescence signal was measured using a multi-mode microplate reader (BioTek instruments. Winooski, Vt.). Different drug concentrations were assayed in triplicate. To evaluate the efficacy of the drugs, IC50 of the compounds was calculated on a panel of human and mouse derived pancreatic cancer cell lines in vitro. Cells were treated for 24 hours with SW V-49s, SV119, Erastin, and an equimolar mixture of SV119 and Erastin, then CELLTITER-GLO® viability assay was performed.
A general note: Cellular ATP, detected with luciferase, serves as a proxy for viable cell number.

A further test deals with MIA PaCa-2. The description is as above. The format is cell-based, human. Here is the method:
as §1, §2

The subject of the next test is PANC-1. The test is described as above. The format is cell-based, human. As for the experimental part:
as §1, §2

Another test relates to KCKO cells. The test is described as above. The format is cell-based, murine. Here is the method:
as §1, §2

In another test the test system is SYO-1. Nature of the test: Viability assay, 24 hours treatment, synovial sarcoma cells. Format: cell-based. Here is the method: as §1
Synovial sarcoma cell lines (FIG. 4F, SYO-1, ME1 deficient) are so sensitive to SW V-49s that it was difficult to measure the minimal drug concentration required to kill 50% of the cancer cells, but the measured IC50 was approx. 1.0 μM.
AsPC-1 and SYO-1 cells were plated in 96 well plate overnight then treated with similar concentrations of Erastin for 24 hours. Viability assay was performed after 24 hours. […] (p<0.0001), (FIG. 10).

The test system of test [1] is all human and murine pancreatic cancer cell lines tested. Nature of the test: Viability assay on panel of pancreatic cancer cell lines. The format is cell-based. As for the experimental part:
as §1, §2

In a further test the test system is caspase 3/7. Nature of the test: CASPASE-GLO caspase 3/7 assay in AsPC-1 cells. Conditions: for caspase activity compared to 4 μM SW V-49s: 50 μM, 24 hr., FIG. 5A. Format: cell-based, human. An excerpt: In these experiments, the inventors investigated whether compounds of the present teachings were lethal towards pancreatic cancer cells by triggering an apoptosis cell death pathway, a ferroptosis cell death pathway, or a combination thereof. The inventors thus performed assays for caspase 3/7 as an indicator of apoptotic cell death, and assays for the generation of reactive oxygen species (ROS) as an indicator of ferropoptotic cell death. […] In FIG. 5B, results are shown for Caspase-Glo® (Promega) assays of Aspc-1 cells treated with 8 μM SW V-49s, 8 μM Erastin, 8 μM SV119, or 8 μM of an equimolar mixture of Erastin and SV 119, for 7 hrs.
In these experiments, caspase-3/7.8 and 9 activities were measured In AsPC-1 cells using the corresponding CASPASE-GLO® Assay according to the manufacturer's instructions (Promega, Madison. Wis.). This assay is based on a caspase-specific substrate, which is cleaved to release aminoluciferin, a substrate of luciferase that results in caspase-specific luminescence signals. Cells were seeded at a density of 2×10^4 in white 96-well, clear bottom plates for 24 hours before treatment with 4 μM of compounds. The contents were then mixed using a plate shaker for 30 seconds, thereafter incubated at room temperature for 90 minutes. Luminescence signal was measured using a multi-mode microplate reader (BioTek). Assay was performed in triplicates, and the caspase activity of DMSO was considered as a base line.
The present inventors have shown that SV119 induces caspase-3 dependent apoptosis (Kashiwagi, H., el al. Mol Cancer 2007; 6:48). In these experiments, AsPC-1 cells were treated with 4 μM of SW V-49s. SV119, Erastin, and equimolar mixture of SV119 and Erastin for 24 hours. Using CASPASE-GLO® Assays, Caspase-3 level was measured to assess the activity of SW 119 domain of the SW V-49s compound and Caspase-8 and 9 levels were measured to identify which apoptotic pathway was involved.

Where [2] appears, read: 24 hours treatment, SYO-1, ME1 deficient, FIG. 4F, read-out: IC50.

Regarding `CCOc1ccccc1-n1c(C(C)N2CCN(C(=O)COc3ccc(Cl)cc3)CC2)nc2ccccc2c1=O` (stereo not shown) [Erastin], the IC50 in the test with BxPC-3 (Homo sapiens, BXPC-3, 24 h, read-out: IC50 ± SEM, BxPC-3) was more than 150 µM; in the test on MIA PaCa-2 (Homo sapiens, MIA PaCa-2, 24 h, read-out: IC50 ± SEM, MiaPaCa-2) it was more than 150 µM; in the test on PANC-1 (Homo sapiens, PANC-1, 24 h, read-out: IC50 ± SEM, PANC-1), more than 150 µM; in the test with KCKO cells (Mus musculus, 24 h, read-out: IC50 ± SEM, KCKO) it was more than 150 µM; in the test with SYO-1 (24 h), more than 16 µM; in test [1] (Pancreatic cancer cell, 24 h, 24 hours treatment, against all human and murine pancreatic cancer cell lines tested), more than 100 µM. For the same molecule, the IC50 in test [1] (Pancreatic cancer cell, 24 h, panel of human and mouse derived pancreatic cancer cell lines) is more than 150 µM. The death of cells in the test on SYO-1 (40 μM, 24 hours, SYO-1 cells, FIG. 10) worked out at 84%. Further, in the test on caspase 3/7 (AsPC-1 cells), the “caspase activity compared to 4 μM SW V-49s” value was “far less caspase activity”.

With `COc1ccc(C)cc1NC(=O)OC1C[C@H]2CCC[C@@H](C1)N2CCCCCCN` (stereo partly shown) [SV119, reference compound], the IC50 was 54.2 ± 2.6 µM in the test with BxPC-3 (24 hours, mean ± SEM, n ≥ 3, read-out: IC50 ± SEM, BxPC-3); 94.5 ± 1.9 µM in the test on MIA PaCa-2 (24 hours, mean ± SEM, n ≥ 3, read-out: IC50 ± SEM, MiaPaCa-2); 111 ± 5.3 µM in the test on PANC-1 (24 hours, mean ± SEM, n ≥ 3, read-out: IC50 ± SEM, PANC-1); 68.7 ± 10.1 µM in the test on KCKO cells (24 hours, mean ± SEM, n ≥ 3, read-out: IC50 ± SEM, KCKO); 6.2 µM in the test with SYO-1 (setting [2]); more than 54 µM in test [1] (24 hours treatment, against all human and murine pancreatic cancer cell lines tested, read-out: IC50). Also, the “caspase activity compared to 4 μM SW V-49s” value in the test on caspase 3/7 (AsPC-1 cells) is reported as “far less caspase activity”.

Consider `CCOc1ccccc1-n1c(CN2CCN(C(=O)COc3ccc(CNCCCCCCN4C5CCCC4CC(OC(=O)Nc4cc(C)ccc4OC)C5)cc3)CC2)nc2ccccc2c1=O.O=C(O)C(=O)O` (stereo not shown) [SW V-49s], for which the IC50 in the test on BxPC-3 (Homo sapiens, BXPC-3, 24 h, read-out: IC50 concentration) came to 2.3 µM; in the test on BxPC-3 (Homo sapiens, BXPC-3, 24 hours, mean ± SEM, n ≥ 3, read-out: IC50 ± SEM, BxPC-3) it was 2.5 ± 0.1 µM; in the test with MIA PaCa-2 (Homo sapiens, MIA PaCa-2, 24 h, read-out: IC50 concentration) it was 2.3 µM; with MIA PaCa-2 (Homo sapiens, MIA PaCa-2, 24 hours, mean ± SEM, n ≥ 3, read-out: IC50 ± SEM, MiaPaCa-2), 3 ± 0.3 µM; in the test with PANC-1 (Homo sapiens, PANC-1, 24 h, read-out: IC50 concentration) it was 4.3 µM; in the test with PANC-1 (Homo sapiens, PANC-1, 24 hours, mean ± SEM, n ≥ 3, read-out: IC50 ± SEM, PANC-1), 4.1 ± 0.2 µM. For the same molecule, the IC50 is 2.2 µM with KCKO cells (Mus musculus, 24 h, read-out: IC50 concentration); 2.4 ± 0.2 µM in the test on KCKO cells (Mus musculus, 24 hours, mean ± SEM, n ≥ 3, read-out: IC50 ± SEM, KCKO); approximately 1 µM in the test on SYO-1 (setting [2]). For the same molecule, in test [1] (24 hours, pancreatic cancer cell line panel), the “reduction of IC50 as compared to equimolar mixture of SV119 and Erastin” value is 17-20 fold. The “caspase-3 fold above baseline” value in the test on caspase 3/7 (4 μM, 24 hours, AsPC-1, DMSO baseline, FIG. 12A) is recorded as 3.4 fold. Besides, in the test with caspase 3/7 (8 μM, 7 hrs, AsPC-1 cells, FIG. 5B), the “increase in caspase 3/7 activity compared to all controls” value is “approximately 3 fold”.

Values taken from patent US10975069B2, “Sigma-2 receptor ligand drug conjugates as antitumor compounds, methods of synthesis and uses thereof” (priority 2014, dated 2021).
